Assay results published in patent US4898870A, “Pyrroloquinoline quinone compounds useful as an enzyme inhibitor” (Sogo Pharmaceutical Company Limited, priority 1986, dated 1990).
One block for each compound: values may come before it.

Legend:
[1] = system: chick lens aldose reductase; experiment: Inhibition of chick lens aldose reductase; type: biochemical
Method: The activity of aldose reductase was measured according to the method of Kinoshita et al. [Metabolism, 28, 462-469 (1979)] using a homogenate of chick lens.
(§1) To a reaction solution containing the chick lens homogenate, Li2 SO4, NADPH2 and an inhibitor, was added dlglyceraldehyde as substrate to start the reaction, and the enzymatic activity was determined by measuring the decrease in optical density (OD) of NADPH2 at 340 nm after five minutes. A solution with no substrate added was used for the blank test. The inhibition rate against the aldose reductase reaction was calculated from the following equation: [formula]
An enzyme solution was prepared from chick lens in the same manner as in Test Example 4, and the inhibitory action of PQQ·H2 against aldose reductase was measured in the same way as in Test Example 4.
An enzyme solution was prepared from chick lens in the same manner as in Test Example 4, and the inhibitory action of PQQ·3Me against aldose reductase was measured in the same way as in Test Example 4.

[2] = system: galactose-induced cataract; experiment: Galactose-induced cataract in rats; type: in vivo, Sprague-Dawley rats; conditions: for cataract estimation: number at Grade A^- / cataract estimation: number at Grade A^0: 50% galactose feed; for cataract estimation: number at Grade A^-: 7th day; for cataract estimation: number at Grade A^0: 10th day
Method: Male, Sprague-Dawley rats weighing 55 to 65 grams were used as test animals in this experiment. These were divided into three groups (normal group, 50%-galactose feed group, and drug-administered group). The normal group was given a commercial powdery feed (CE-2 of Clea Japan Inc.), and the other two groups were given the above normal feed further containing 50% galactose, with free access thereto in all cases. To the drug-administered group, was further administered PQQ orally (30 mg/Kg) or intraperitonealy (20 mg/Kg) once a day throughout the course of test. The lens was extracted from the test animals on the 7th and 10th days after the start of experiment, and cataract estimation was made according to the following standards: […]

[3] = system: egg cataract induced by hydrocortisone; experiment: Egg cataract induced by hydrocortisone; type: in vivo, White-leghorn eggs
Method: White-leghorn eggs were incubated in a hatcher held at a temperature of 37° C. and a relative humidity of about 70%.
To the control and drug-administered groups, was administered at the air space 0.2 ml each of a solution of 0.12 mg hydrocortisone succinate (HC) in pure water on the 15th day after the start of incubation.
To the drug-administered group, was further injected PQQ 2 hours, or 2 and 5 hours, after HC administration.
The lens was extracted from each egg 48 hours after HC administration, and cataract estimation was made by the method of Nishigohri et al. [INVESTIGATIVE OPHTHALMOLOGY & VISUAL SCIENCE, 25, 1051 (1984)] according to the following standards: […]

[4] = target: T1, bovine lens aldose reductase (Bos taurus, UniProt P16116); experiment: Inhibition of bovine lens aldose reductase; type: biochemical
T1 construct: A homogenate of bovine lens was centrifuged for ten minutes at 20,000 rpm under cooling; from tissue; host or cells: bovine lens (20,000 rpm supernatant of homogenate)
Method: (§2) Specifically reaction was started by adding dl-glyceraldehyde as a substrate to a reaction solution containing rat lens homogenate, Li2 SO4, NADPH2 and inhibitor, and the enzyme activity was measured by the decrease of the optical absorption of NADPH2 (optical density: OD) at 340 nm for 5 min. The solution with no addition of the substrate was used for the blank OD. The inhibiting ratio for the aldose reductase reaction by the inhibitor was determined by the following equation: [formula]
The determination of enzyme activity was same as in Test Example 1 except enzyme source was bovine lens.
as §1
A homogenate of bovine lens was centrifuged for ten minutes at 20,000 rpm under cooling, the supernatant was collected as an enzyme solution, and the inhibitory action of PQQ against aldose reductase was measured in the same way as in Test Example 4.
A homogenate of bovine lens was centrifuged for ten minutes at 20,000 rpm under cooling, the supernatant was collected as an enzyme solution, and the inhibitory action of PQQ·H2 against bovine lens aldose reductase was measured in the same way as in Test Example 4.
An enzyme solution was prepared from chick lens in the same manner as in Test Example 9, and the inhibitory action of PQQ·3Me against bovine lens aldose reductase was measured in the same way as in Test Example 4.

[5] = target: T2, human placental aldose reductase (Homo sapiens, UniProt P15121); experiment: Inhibition of human placental aldose reductase; type: biochemical; conditions: human placenta enzyme
T2 construct: An enzyme solution was prepared from human placenta; from tissue; host or cells: human placenta
Method: as §2
The determination of enzyme activity was same as in Test Example 1 except enzyme source was human placenta.
as §1
An enzyme solution was prepared from human placenta, and the inhibitory action of PQQ·2K against human placental aldose reductase was measured in the same way as in Test Example 4.
An enzyme solution was prepared from human placenta, and the inhibitory action of PQQ·3Me against human placental aldose reductase was measured in the same way as in Test Example 4.
An enzyme solution was prepared from human placenta, and the inhibitory action of PQQ·2Me.Et against human placental aldose reductase was measured in the same way as in Test Example 4.

[6] = Acute toxicity test, rat; conditions: in vivo
Excerpt: (§3) Generally, pyrroloquinoline quinone (hereinafter referred to as PQQ) is a novel coenzyme different from conventional coenzyme NAD(P) or flavins for oxydation-reduction and it was initially found as a coenzyme for glucose dehydrogenase of Acinetobactor group. PQQ has a concern with the oxidizing reaction of alcohols, aldehydes, glucose and amines in an organism. Further, its growth promoting effect to a certain kind of micro-organisms,animal cells, plant cells has also been reported. Further, PQQ is also presented in the blood of mammal and, while its vitamin-like physiological activity is guessed, its biological roles has not yet been known at present. However, PQQ and its derivatives constitute the ingredients of an organism and considered to be a stable and non-toxic substance. This is apparent from the result of the acute toxicity test to mouse and rat described later.
(§4) Acute toxicity test of PQQ tri(dimethylamide)

[7] = Acute toxicity test, mouse; conditions: in vivo
Excerpt: as §3, §4

[8] = PQQ 0.25 mg/egg × 1, HC 0.12 mg/egg, 48 hours after HC
[9] = PQQ 0.5 mg/egg × 1, HC 0.12 mg/egg, 48 hours after HC
[10] = PQQ 0.5 mg/egg × 2, HC 0.12 mg/egg, 48 hours after HC
[11] = PQQ 1.0 mg/egg × 1, HC 0.12 mg/egg, 48 hours after HC

concentration inhibiting the activity by 100% ([1]; chick lens): 10^-4 M
IC50 ([1]; chick lens homogenate, read-out: concentration inhibiting the aldose reductase activity by 50%): 5 µM
Inhibition Rate ([1]; inhibitor 10^-4 M/reaction soln.): 100%
Inhibition Rate ([1]; inhibitor 10^-5 M/reaction soln.): 82.1%
Inhibition Rate ([1]; inhibitor 10^-6 M/reaction soln.): 13.9%
Inhibition Rate ([1]; inhibitor 10^-7 M/reaction soln.): 0%
Inhibition Rate ([1]; inhibitor 10^-8 M/reaction soln.): 0%
IC50 ([4]; bovine lens enzyme): 300 nM
IC100 ([4]; bovine lens, read-out: concentration inhibiting the activity by 100%): 1 µM
inhibition at 10 µM ([4]; inhibitor 10^-5 M/reaction soln., read-out: Inhibition Rate): 100%
inhibition at 1 µM ([4]; inhibitor 10^-6 M/reaction soln., read-out: Inhibition Rate): 100%
inhibition at 0.1 µM ([4]; inhibitor 10^-7 M/reaction soln., read-out: Inhibition Rate): 35.9%
inhibition at 0.01 µM ([4]; inhibitor 10^-8 M/reaction soln., read-out: Inhibition Rate): 0%
SMILES: O=C(O)c1cc(C(=O)O)c2c(n1)C(=O)C(=O)c1cc(C(=O)O)[nH]c1-2 [PQQ, pyrroloquinoline quinone]
cataract estimation: number at Grade A^- ([2]; 20 mg/Kg i.p. once a day): 4/4
cataract estimation: number at Grade A^0 ([2]; 20 mg/Kg i.p. once a day): 2/2
cataract estimation: number at Grade A^- ([2]; 30 mg/Kg p.o. once a day): 6/6
cataract estimation: number at Grade A^0 ([2]; 30 mg/Kg p.o. once a day): 4/4
nebula formation ([2]; 50%-galactose feed for seven days, both p.o. and i.p.): no such nebula formation was observed at all
change of cataract grade versus 50%-galactose feed group ([2]; 50%-galactose feed over ten days): improvement by two grades
effect on hydrocortisone-induced egg cataract ([3]; HC 0.12 mg on 15th day of incubation): evidently showed an effect of curing cataract
cataract estimation: number at Grade I [3, 8]: 2/8
cataract estimation: number at Grade III [3, 8]: 4/8
cataract estimation: number at Grade IV [3, 8]: 2/8
cataract estimation: number at Grade I [3, 9]: 2/10
cataract estimation: number at Grade III [3, 9]: 8/10
cataract estimation: number at Grade II [3, 10]: 8/10
cataract estimation: number at Grade III [3, 10]: 2/10
cataract estimation: number at Grade I [3, 11]: 2/6
cataract estimation: number at Grade II [3, 11]: 2/6
cataract estimation: number at Grade III [3, 11]: 2/6

SMILES: CN(C)C(=O)c1cc(C(=O)N(C)C)c2c(n1)C(=O)C(=O)c1cc(C(=O)N(C)C)[nH]c1-2 [PQQ tri(dimethylamide)]
IC50 [5]: 830 nM
LD50 ([6]; oral): > 5000 mg/kg
LD50 ([6]; sc, subcutaneous): > 1500 mg/kg
LD50 ([7]; oral): > 5000 mg/kg
LD50 ([7]; sc, subcutaneous): > 1500 mg/kg
